According to patent US20140309210A1, “INDAZOLE COMPOUNDS, COMPOSITIONS AND METHODS OF USE THEREOF” (Genentech, Inc., priority 2011, published 2014):

biological target: T1, purified ITK (Invitrogen PV3875) (Homo sapiens, UniProt Q08881); experiment: ITK peptide phosphorylation assay (Caliper LabChip or LCMS); assay type: biochemical; conditions: Table 1, Examples 141-279
T1 construct: purchased Invitrogen PV3875
T1 sequence (Q08881 1-620): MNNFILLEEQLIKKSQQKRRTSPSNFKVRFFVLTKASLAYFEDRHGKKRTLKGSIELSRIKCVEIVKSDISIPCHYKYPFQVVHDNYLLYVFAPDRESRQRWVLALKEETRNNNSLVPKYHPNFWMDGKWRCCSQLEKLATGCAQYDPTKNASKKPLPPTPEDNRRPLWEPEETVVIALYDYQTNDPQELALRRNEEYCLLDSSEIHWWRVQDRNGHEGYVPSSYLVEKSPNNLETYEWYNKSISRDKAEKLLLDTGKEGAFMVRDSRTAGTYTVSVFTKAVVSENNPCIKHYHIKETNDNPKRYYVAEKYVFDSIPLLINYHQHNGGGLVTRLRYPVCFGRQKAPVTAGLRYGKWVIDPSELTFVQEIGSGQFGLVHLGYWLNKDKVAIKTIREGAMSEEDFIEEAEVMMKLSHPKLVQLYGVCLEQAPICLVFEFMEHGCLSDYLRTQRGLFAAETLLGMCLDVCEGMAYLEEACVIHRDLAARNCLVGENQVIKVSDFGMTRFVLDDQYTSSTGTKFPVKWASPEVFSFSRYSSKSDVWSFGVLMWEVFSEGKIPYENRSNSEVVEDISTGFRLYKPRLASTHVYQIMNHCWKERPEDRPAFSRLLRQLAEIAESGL
Method in brief: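 Purified human ITK peptide phosphorylation, quenched with EDTA (50 mM final) for Caliper LabChip separation or TCA (5% v/v final) for UPLC-MS/MS MRM quantification. Ki derived via Morrison tight-binding equation, corrected for competitive inhibition using ATP concentration relative to Km,app.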

SMILES | Ki [nM]
N#Cc1cccc(Cn2cc(NC(=O)c3n[nH]c4cc(-c5cncs5)ccc34)cn2)c1 [Example 202, N-[1-[(3-cyanophenyl)meth-yl]pyrazol-4-yl]-6-thiazol-5-yl-1H-indazole-3-carboxamide] | 5.77
Cn1ccc(-c2ccc3c(C(=O)Nc4cnn(Cc5cccc(C#N)c5)c4)n[nH]c3c2)n1 [Example 203, N-[1-[(3-cyanophenyl)meth-yl]pyrazol-4-yl]-6-(1-methylpyrazol-3-yl)-1H-indazole-3-carboxamide] | 1100
O=C(Nc1cnn(Cc2ccccc2)c1)c1n[nH]c2cc(-c3cnccn3)ccc12 [Example 204, N-(1-benzyl-1H-pyrazol-4-yl)-6-(pyrazin-2-yl)-1H-indazole-3-carboxamide] | 37.8
O=C(Nc1cnn(Cc2ccccc2)c1)c1n[nH]c2cc(-c3ccnnc3)ccc12 [Example 205, N-(1-benzylpyrazol-4-yl)-6-pyridazin-4 yl-1H-indazole-3 carboxamide] | 131
N#Cc1ccc2c(C(=O)Nc3cnn(Cc4ccccc4)c3)n[nH]c2c1 [Example 206, N-(1-benzylpyrazol-4-yl)-6-cyano-1H-indazole-3-carboxamide] | 129
O=C(Nc1cnn(Cc2ccccc2)c1)c1n[nH]c2cc(-c3cncc(Cl)c3)ccc12 [Example 207, N-(1-benzylpyrazol-4-yl)-6-(5-chloro-3-pyridyl)-1H-indazole-3-carboxamide] | 9.39
COC1CCN(c2ccc3c(C(=O)Nc4cnn(Cc5cccc(C#N)c5)c4)n[nH]c3c2)C1 (stereo not shown) [Example 208, N-[1-[(3-cyanophenyl)meth-yl]pyrazol-4-yl]-6-(3-methoxypyrrolidin-1-yl)-1H-indazole-3-carboxamide] | 458
O=C(Nc1cnn(Cc2ccccc2)c1)c1n[nH]c2cc(-c3cnc4c(c3)CCCO4)ccc12 [Example 209, N-(1-benzylpyrazol-4-yl)-6-(3,4-dihydro-2H-pyrano[2,3-b]pyridin-6-yl)-1H-indazole-3-carboxamide] | 66.2
O=C(Nc1cnn(Cc2ccccc2)c1)c1n[nH]c2cc(-c3cncc(F)c3)ccc12 [Example 210, N-(1-benzylpyrazol-4-yl)-6-(5-fluoro-3-pyridyl)-1H-indazole-3-carboxamide] | 5
CCC(c1ccccc1)n1cc(NC(=O)c2n[nH]c3cc(-c4cncc(OC)c4)ccc23)cn1 (stereo not shown) [Example 211, 6-(5-methoxy-3-pyridyl)-N-[1-(1-phenylpropyl)py-razol-4-yl]-1H-indazole-3-carboxamide] | 53.8
COc1cncc(-c2ccc3c(C(=O)Nc4cnn(C(CCN(C)C)c5ccccc5)c4)n[nH]c3c2)c1 (stereo not shown) [Example 212, N-[1-[3-(dimethylamino)-1-phenyl-propyl]pyrazol-4-yl]-6-(5-methoxy-3-pyridyl)-1H-indazole-3-carboxamide] | 1.64
COc1cncc(-c2ccc3c(C(=O)Nc4cnn(C(CCN(C)C)c5ccccc5)c4)n[nH]c3c2)c1 (stereo not shown) [Example 213, N-[1-[3-(dimethylamino)-1-phenyl-propyl]pyrazol-4-yl]-6-(5-methoxy-3-pyridyl)-1H-indazole-3-carboxamide] | 8.01
CCC(c1ccccc1)n1cc(NC(=O)c2n[nH]c3cc(-c4cncc(OC)c4)ccc23)cn1 (stereo not shown) [Example 214, 6-(5-methoxy-3-pyridyl)-N-[1-(1-phenylpropyl)py-razol-4-yl]-1H-indazole-3-carboxamide] | 7.17
COc1cncc(-c2ccc3c(C(=O)Nc4cnn(Cc5cccnc5)c4)n[nH]c3c2)c1 [Example 215, 6-(5-methoxy-3-pyridyl)-N-[1-(3-pyridylmethyl)py-razol-4-yl]-1H-indazole-3-carboxamide] | 17.2
O=C(Nc1cnn(Cc2cccnc2)c1)c1n[nH]c2cc(-c3cn[nH]c3)ccc12 [Example 216, 6-(1H-pyrazol-4-yl)-N-[1-(3-pyridylmethyl)py-razol-4-yl]-1H-indazole-3-carboxamide] | 1.12
CNc1cc(-c2ccc3c(C(=O)Nc4cnn(Cc5ccccc5)c4)n[nH]c3c2)ncn1 [Example 217, N-(1-benzylpyrazol-4-yl)-6-[6-(methylamino)py-rimidin-4-yl]-1H-indazole-3-carboxamide] | 404
O=C(Nc1cnn(Cc2ccncc2)c1)c1n[nH]c2cc(-c3cn[nH]c3)ccc12 [Example 218, 6-(1H-pyrazol-4-yl)-N-[1-(4-pyridylmethyl)py-razol-4-yl]-1H-indazole-3-carboxamide] | 3.19

SMILES | Ki [nM]
COc1cncc(-c2ccc3c(C(=O)Nc4cnn(Cc5ccncc5)c4)n[nH]c3c2)c1 [Example 219, 6-(5-methoxy-3-pyridyl)-N-[1-(4-pyridylmethyl)py-razol-4-yl]-1H-indazole-3-carboxamide] | 23
O=C(Nc1cnn(Cc2ccccn2)c1)c1n[nH]c2cc(-c3cn[nH]c3)ccc12 [Example 220, 6-(1H-pyrazol-4-yl)-N-[1-(2-pyridylmethyl)py-razol-4-yl]-1H-indazole-3-carboxamide] | 2.93
COc1cncc(-c2ccc3c(C(=O)Nc4cnn(Cc5ccccn5)c4)n[nH]c3c2)c1 [Example 221, 6-(5-methoxy-3-pyridyl)-N-[1-(2-pyridylmethyl)py-razol-4-yl]-1H-indazole-3-carboxamide] | 51.4
COc1cncc(-c2ccc3c(C(=O)Nc4cnn(CC5CCCCC5)c4)n[nH]c3c2)c1 [Example 222, N-[1-(cyclohexylmeth-yl)pyrazol-4-yl]-6-(5-methoxy-3-pyridyl)-1H-indazole-3-carboxamide] | 75.3
COc1cncc(-c2ccc3c(C(=O)Nc4cnn(C(C)C)c4)n[nH]c3c2)c1 [Example 223, N-(1-isopropylpyrazol-4-yl)-6-(5-methoxy-3-pyridyl)-1H-indazole-3-carboxamide] | 90
N#Cc1cccc(Cn2cc(NC(=O)c3n[nH]c4cc(-c5cncc(Cl)c5)ccc34)cn2)c1 [Example 224, 6-(5-chloro-3-pyridyl)-N-[1-[(3-cyanophenyl)meth-yl]pyrazol-4-yl]-1H-indazole-3-carboxamide] | 5.18
O=C(Nc1cnn(Cc2cccnn2)c1)c1n[nH]c2cc(-c3cn[nH]c3)ccc12 [Example 225, 6-(1H-pyrazol-4-yl)-N-[1-(pyridazin-3-ylmethyl)pyrazol-4-yl]-1H-indazole-3-carboxamide] | 4.85
O=C(Nc1cnn(Cc2cncnc2)c1)c1n[nH]c2cc(-c3cn[nH]c3)ccc12 [Example 226, 6-(1H-pyrazol-4-yl)-N-[1-(pyrimidin-5-ylmethyl)pyrazol-4-yl]-1H-indazole-3-carboxamide] | 1.12
O=C(Nc1cnn(Cc2cnc(N3CCOCC3)nc2)c1)c1n[nH]c2cc(-c3cn[nH]c3)ccc12 [Example 227, N-[1-[(2-morpholinopy-rimidin-5-yl)methyl]pyrazol-4-yl]6-(1H-pyrazol-4-yl)-1H-indazole-3-carboxamide] | 2.36
COCCN(C)CC(c1cccnc1)n1cc(NC(=O)c2n[nH]c3cc(-c4cncc(OC)c4)ccc23)cn1 (stereo not shown) [Example 228, N-[1-[2-[2-methoxyethyl(meth-yl)amino]-1-(3-pyridyl)ethyl]py-razol-4-yl]-6-(5-methoxy-3-pyridyl)-1H-indazole-3-carboxamide] | 5.54
COCCN(C)CC(c1cccnc1)n1cc(NC(=O)c2n[nH]c3cc(-c4cncc(OC)c4)ccc23)cn1 (stereo not shown) [Example 229, N-[1-[2-[2-methoxyethyl(meth-yl)amino]-1-(3-pyridyl)ethyl]py-razol-4-yl]-6-(5-methoxy-3-pyridyl)-1H-indazole-3-carboxamide] | 32.4
O=C(Nc1cnn(Cc2ccccc2)c1)c1n[nH]c2c(F)cccc12 [Example 230, N-(1-benzylpyrazol-4-yl)-7-fluoro-1H-indazole-3-carboxamide] | 726
CN1CCOc2cc(-c3ccc4c(C(=O)Nc5cnn(Cc6cccnc6)c5)n[nH]c4c3)cnc21 [Example 231, 6-(4-methyl-2,3-dihydropyrido[3,2-b][1,4]oxazin-7-yl)-N-[1-(3-pyridylmethyl)py-razol-4-yl]-1H-indazole-3-carboxamide] | 40.8
COc1cncc(-c2ccc3c(C(=O)Nc4cnn(C(CN5CCN(C)CC5)c5cccnc5)c4)n[nH]c3c2)c1 (stereo not shown) [Example 232, 6-(5-methoxy-3-pyridyl)-N-[1-[2-(4-methylpiperazin-1-yl)-1-(3-pyridyl)ethyl]py-razol-4-yl]-1H-indazole-3-carboxamide] | 31.4
COc1cncc(-c2ccc3c(C(=O)Nc4cnn(C(CN(C)C)c5cccnc5)c4)n[nH]c3c2)c1 (stereo not shown) [Example 233, N-[1-[2-(dimethylamino)-1-(3-pyridyl)ethyl]py-razol-4-yl]-6-(5-methoxy-3-pyridyl)-1H-indazole-3-carboxamide] | 51
COc1cncc(-c2ccc3c(C(=O)Nc4cnn(C(CN5CCN(C)CC5)c5cccnc5)c4)n[nH]c3c2)c1 (stereo not shown) [Example 234, 6-(5-methoxy-3-pyridyl)-N-[1-[2-(4-methylpiperazin-1-yl)-1-(3-pyridyl)ethyl]py-razol-4-yl]-1H-indazole-3-carboxamide] | 5.38
O=C(Nc1cnn(CC2CCOC2)c1)c1n[nH]c2cc(-c3cn[nH]c3)ccc12 (stereo not shown) [Example 235, 6-(1H-pyrazol-4-yl)-N-[1-(tetrahydrofuran-3-ylmethyl)pyrazol-4-yl]-1H-indazole-3-carboxamide] | 4.64
